From patent US20160008298A1, “XANTHOHUMOL-BASED COMPOUNDS AND COMPOSITIONS THEREOF, AND METHODS OF MAKING AND USING THE SAME” (Oregon State University, priority 2014, published 2016)
Values joined by “and” are separate entries in the source; they are usually repeats but may differ in a detail not shown here. Equal entries are not always repeated.

Key:
[1] = system: C2C12 skeletal muscle cells; test: Seahorse OCR and ECAR measurements after oligomycin; assay type: cell-based, mouse; details: for increase in oxygen consumption: as summarised in Example 2
Procedure: OCR and ECAR measurements were performed with a Seahorse XF 24 Analyzer (Seahorse Bioscience). Cells were plated 24 hours prior to measurements at a density of 40,000 cells per well within growth medium in a 24-well plate. The cells were then allowed to adhere for 24 hours (37° C., 5% CO2). Prior to the assay, the cells were washed with freshly prepared running media consisting of Seahorse XF Assay medium (Seahorse Bioscience, North America, USA), 10 mM glucose and 1 mM sodium pyruvate. The pH of the medium was adjusted to 7.4 with 1 M NaOH. The cells were then equilibrated for one hour at 37° C. without CO2. The compounds were injected during the assay; OCR and ECAR were measured at 9 minutes measurement intervals. The solutions of oligomycin, FCCP, XN, DXN and TXN were freshly prepared in running medium. The final concentrations in the wells were: 1 μM for oligomycin, 5 μM for XN, DXN and TXN and 2, 5, 8, 25 μM for the dose response experiments with DXN. Ethanol was added to the control wells not to exceed a final concentration of 0.1%. All the compounds were tested in quadruplicate on the 24-well plate. XN is highly non-polar and FBS can be used to dissolve XN. Thus, XN, DXN and TXN were first dissolved in ethanol and the resulting solutions were diluted 100-fold in running medium containing 1% of FBS. After a further 10-fold dilution into the media in wells, only 0.1% of FBS was present during OCR measurements. […] The concentration of oligomycin and the cell density used were selected based on preliminary experiments.
Seahorse data were analyzed in SAS 9.2 (SAS Institute Inc., Cary, N.C.). To show a consistent baseline, OCR values (in pmol/min/mg protein) and ECAR values (in mpH/min/mg protein) for each value were divided prior to statistical analysis by the average of the four pre oligomycin treatment values (0, 8, 17, and 25 minutes) for the corresponding well and are shown as % pre oligomycin values. The original scale for OCR and for ECAR values was utilized for the OCR/ECAR ratio (in pMol/mpH). To account for repeated measures within wells over time, a repeated-measures-in-time design using ANOVA procedures in PROC MIXED was used. Fixed effects in the model were treatment (control, 2 μM DXN, 5 μM XN, 5 μM DXN, and 5 μM TXN for the compound study and control, 2, 5, 8, and 25 μM DXN for the DXN dosage study), time (0, 8, 17, 25, 34, 43, 52, 60, 69, 78, 86, and 95 minutes), and their interaction. The random effect was the experiment (5 experiments for the compound study and 3 experiments for the DXN dosage study). To account for repeated measures within wells over time, a first order homogeneous variance-covariance matrix [AR(1)] was fitted for each well. Using the ESTIMATE statement, a priori contrasts were constructed by comparing the changes in compound treated cells from the last two time points prior to compound treatment (average 52 and 60 minutes) to the changes in control cells during the same time period. This was done for each compound and dosage for 69, 78, 86, and 95 minutes separately and for all four time points combined. […] A P-value of 0.05 was considered statistically significant and is shown as star in the graphs (FIG. 5).

C57BL6/J mice = test: Intraperitoneal glucose tolerance test in high-fat fed mice; assay type: in vivo, mouse; details: for insulin sensitivity in the GTT compared to control (vehicle-diet) mice: 30 mg/kg body weight/day, weeks 4 and 11; for Mean Plasma Glucose Level 0 Min: 30 mg/kg/day in high fat diet, 6 h fast, before glucose injection; for Mean Plasma Glucose Level 15 min / Mean Plasma Glucose Level 30 min / Mean Plasma Glucose Level 60 min / Mean Plasma Glucose Level 120 min / peak glucose level (group average) / time at which peak glucose level was reached / peak glucose level / time at which peak glucose level occurred: 30 mg/kg/day; for Mean Plasma Glucose Level 15 min / Mean Plasma Glucose Level 30 min / Mean Plasma Glucose Level 60 min / Mean Plasma Glucose Level 120 min: after 2 g/kg glucose i.p.; for peak glucose level (group average) / time at which peak glucose level was reached: Week 4 glucose tolerance test; for peak glucose level / time at which peak glucose level occurred: Week 11 glucose tolerance test
Procedure: The total number of C57BL6/J mice was 48, with 12 mice belonging to each of 4 treatment groups. Duration of the feeding was 14 weeks. Mouse feed contained high fat content (60% of kCal), and was supplemented with XN, DXN, or TXN in the treatment groups. XN, DXN and TXN content within the mouse diet were designed to deliver a dose of 30 mg/kg/day body weight. Food intake was measured three times per week by weighing the food pellet before placement in the cage, and at the time of feed changing by weighing uneaten food. Mice were unrestricted in dietary intake, being allowed to eat as much food as desired. Mice were weighed once per week. Groups included low dose (30 mg/kg) XN, DXN, TXN and no supplement control. Mice were maintained in accordance with the Oregon State University Institutional Animal Care and Use Committee (IACUC) regulations. One mouse was maintained on a standard AIN-93M chow diet to be used as a healthy reference during glucose tolerance assays.
Glucose tolerance tests were conducted during week 4 and week 11 of the feeding trial. Five mice from each treatment group were used in each glucose tolerance assay. Mice were fasted for 6 hours prior to baseline blood glucose testing. Blood was collected from the mice by tail puncture, and glucose measurements were taken using a One Touch UltraMini (LifeScan, Inc.) glucometer. Mice were weighed and then given an intraperitoneal (IP) injection of glucose equal to 2 g/kg body weight.

[2] = system: mitochondrial transmembrane potential in C2C12 cells; test: JC-1 assay of mitochondrial transmembrane potential; assay type: cell-based, mouse; details: 5 μM, 8 μM, 25 μM and 50 μM; one hour of exposure
Procedure: Cells were plated at a density of 80,000 cells per well in black 96-well plates and incubated for 24 hours at 37° C. (5% CO2). They were then treated with fresh solutions of various concentrations of XN, DXN or TXN in growth medium. The final concentrations of XN, DXN, TXN were 1, 2, 5, 8, 25, 50 μM, all in quadruplicate wells, in the 96-well plates. After one hour of exposure to the compounds at 37° C. (5% CO2), the cells were treated with 10 μL of a JC-1 staining solution (freshly prepared by diluting 11 fold 100 μL of the JC-1 agent furnished from the assay kit). After 15 to 30 minutes of incubation (37° C., 5% CO2), the cells were washed three times with the Cell-Based Assay Buffer (prepared by dissolving three buffer tablets of the kit in 300 mL of MilliQ water). The plates were then analyzed by a fluorescent plate reader (SpectraMax Gemini XS) at 560-595 nm and 485-535 nm.
JC-1 can selectively enter into mitochondria and reversibly change color from green to red as the membrane potential increases. In healthy cells with high mitochondrial transmembrane potential, JC-1 spontaneously forms complexes known as J-aggregates with intense red fluorescence with excitation and emission at 560 nm and 595 nm, respectively. […] The ratio of fluorescence intensity of J-aggregates to fluorescence intensity of J-monomers can be used as an indicator of cell heath or mitochondrial state. […] A decrease in the values of the ratios compared to the control is indicative of an alteration in the potential across the mitochondrial membrane.

[3] = 5 μM, after oligomycin 1 μM, compound study, five independent experiments
[4] = 5 μM, oligomycin 1 μM, compound study, average of five independent experiments

Row | SMILES | decrease in ECAR [1, 3] [%] | increase in oxygen consumption ([1]; 5 μM) | increase in OCR in the presence of oligomycin [1, 4] [%] | insulin sensitivity in the GTT compared to control (vehicle-diet) mice (C57BL6/J mice) | Mean Plasma Glucose Level 0 Min (C57BL6/J mice; Week 4) | Mean Plasma Glucose Level 15 min (C57BL6/J mice; Week 4) | Mean Plasma Glucose Level 30 min (C57BL6/J mice; Week 4) | Mean Plasma Glucose Level 60 min (C57BL6/J mice; Week 4) | Mean Plasma Glucose Level 120 min (C57BL6/J mice; Week 4) | peak glucose level (group average) (C57BL6/J mice) | time at which peak glucose level was reached (C57BL6/J mice) [min] | Mean Plasma Glucose Level 0 Min (C57BL6/J mice; Week 11) | Mean Plasma Glucose Level 15 min (C57BL6/J mice; Week 11) | Mean Plasma Glucose Level 30 min (C57BL6/J mice; Week 11) | Mean Plasma Glucose Level 60 min (C57BL6/J mice; Week 11) | Mean Plasma Glucose Level 120 min (C57BL6/J mice; Week 11) | peak glucose level (C57BL6/J mice) [mg/dL] | time at which peak glucose level occurred (C57BL6/J mice) [min] | ratio of aggregates to monomers (JC-1) versus control [2] | effect on OCR at higher concentrations [1] | further results
1 | COc1cc(O)c(CC=C(C)C)c(O)c1C(=O)CCc1ccc(O)cc1 [DXN, α,β-dihydroxanthohumol] | 17.8±2.0 | 20% | 28.7±6.9 | improved insulin sensitivity | 297.6 (±6.6) mg/dL | 396.4 (±55.9) mg/dL | 423.0 (±76.3) mg/dL | 342.8 (±70.4) mg/dL | 176.2 (±40.0) mg/dL | 423.0 mg/dL and 407.2 mg/dL | 30 | 249.8 (±22.1) mg/dL | 474.4 (±46.0) mg/dL | 508.0 (±41.2) mg/dL | 494.8 (±38.9) mg/dL | 298.8 mg/dL and 298.8 (±45.5) mg/dL | 508.0 | 30 | changed significantly from the control values | – | decrease in ECAR ([1]; 2 μM, DXN dosage study): 8.0±2.4%; increase in OCR in the presence of oligomycin ([1]; 2 μM, DXN dosage study, three independent experiments): 6±6%; decrease in ECAR ([1]; 2 μM, after oligomycin 1 μM, compound study, five independent experiments): 5.9±2.0%; increase in OCR in the presence of oligomycin ([1]; 2 μM, oligomycin 1 μM, compound study, average of five independent experiments): 8.9±7.0%; decrease in ECAR ([1]; 5 μM, DXN dosage study): 25.2±2.3%; increase in OCR in the presence of oligomycin ([1]; 5 μM, DXN dosage study, three independent experiments): 30.8±6.0%; decrease in ECAR ([1]; 8 μM, DXN dosage study): 31.6±2.3%; increase in OCR in the presence of oligomycin ([1]; 8 μM, DXN dosage study, three independent experiments): 55.1±6.0%; OCR response in the presence of oligomycin ([1]; 25 μM, DXN dosage study): initial increase in the OCR that was immediately followed by a sharp decrease; decrease in ECAR ([1]; 25 μM, DXN dosage study): 49.8±2.3%
2 | COc1cc(O)c(CCC(C)C)c(O)c1C(=O)CCc1ccc(O)cc1 [TXN, tetrahydroxanthohumol] | 27.5±2.0 | 50% | 56.8±6.9 | improved insulin sensitivity | 193.6 (±17.9) mg/dL | 407.2 (±38.1) mg/dL | 394.6 (±50.1) mg/dL | 235.8 (±21.9) mg/dL | 149.0 (±15.3) mg/dL | 407.2 mg/dL and 423.0 mg/dL | 15 | 245.0 (±17.8) mg/dL | 408.0 (±29.8) mg/dL | 513.6 (±37.6) mg/dL | 450.8 (±5.0) mg/dL | 266.8 mg/dL and 266.8 (±32.1) mg/dL | 513.6 | 30 | changed significantly from the control values | tended to inhibit OCR | –
3 | COc1cc(O)c(CC=C(C)C)c(O)c1C(=O)/C=C/c1ccc(O)cc1 [XN, xanthohumol] | 4.7±2.0 | approximately 10% | 11.3±6.9 | improved insulin sensitivity | 283.4 (±4.6) mg/dL | 508.8 (±28.3) mg/dL | 456.0 (±41.5) mg/dL | 389.6 (±29.8) mg/dL | 167.0 (±3.8) mg/dL | 508.8 mg/dL | 15 | 193.2 (±21.9) mg/dL | 465.0 (±30.0) mg/dL | 452.0 (±41.6) mg/dL | 463.8 (±52.2) mg/dL | 373.4 mg/dL and 373.4 (±58.1) mg/dL | 465.0 | 15 | changed significantly from the control values | tended to inhibit OCR | –
